Results reported in ChEMBL document CHEMBL6153137, “Design, Synthesis, and Biological Evaluation of Novel Orally Available Covalent CDK12/13 Dual Inhibitors for the Treatment of Tumors” (J Med Chem, 2025).
The source made the active and inactive calls. No cut-off for these calls is given here.

How the values were obtained:
[1] = test system: HCT-116; assay: Antiproliferative activity against PARG KO human HCT-116 cells assessed as reduction in cell viability incubated for 7 days by CellTiter-Glo reagent based luminescence analysis; assay type: functional; conditions: HCT-116, 168 h
[2] = target: Cyclin-dependent kinase 12/13 (Homo sapiens) (UniProt Q14004+Q9NYV4); assay: Inhibition of CDK12/13 in human SUM149PT cells assessed as reduction in level of phosphorylation of Ser2 on RNA Pol II CTD incubated for 24 hrs by western blot analysis; assay type: cell-based; conditions: dose 250-1000 nM
[3] = target: CDK9/cyclin T1 (Homo sapiens) (UniProt O60563+P50750); assay: Inhibition of human recombinant N-terminal GST-tagged CDK9/N-terminal GST-tagged and C-terminal 8X His-tagged Cyclin T1 expressed in HEP Sf9 cells using ATP as substrate at 2 uM measured after 60 mins by ADP-Glo reagent based luminescence assay
[4] = target: CDK1/Cyclin E (Homo sapiens) (UniProt P06493+P24864); assay: Inhibition of human recombinant N-terminal GST-tagged CDK1/Cyclin E1 expressed in HEP Sf9 cells using ATP as substrate at 2 uM measured after 60 mins by ADP-Glo reagent based luminescence analysis
[5] = target: Cytochrome P450 2C9 (Homo sapiens, UniProt P11712); assay: Inhibition of CYP2C9 in human liver microsomes assessed as inhibition of diclofenac-4-hydroxylation incubated for 10 mins in presence of NADPH by LC-MS/MS analysis; assay type: ADME, Microsome
[6] = Cmax in Balb/c mouse xenografted with human SUM149PT cells at 60 mg/kg, po administered once daily via gavage; assay type: ADME, organism-based; conditions: in vivo
[7] = Cmax in Balb/c mouse xenografted with human SUM149PT cells at 30 mg/kg, po administered once daily via gavage; assay type: ADME, organism-based; conditions: in vivo
[8] = test system: Mus musculus; assay: In vivo inhibition of CDK7 in Balb/c mouse xenografted with human SUM149PT cells assessed as reduction in phosphorylation of Ser5 on RNA Pol II at 15 to 30 mg/kg, po administered once daily via gavage and measured at 4 hrs post-last drug dosage by western blot analysis; assay type: functional, organism-based; conditions: dose 15-30 mg/kg
[9] = Cmax in Sprague-Dawley rat at 50 mg/kg, po measured for 24 hrs by LC-MS/MS analysis; assay type: ADME, organism-based; conditions: in vivo
[10] = Toxicity against male Sprague-Dawley rat assessed as effect on body weight at 10 to 20 mg/kg, po administered once daily via gavage for 28 days and measured twice a week; assay type: organism-based; conditions: in vivo, 672 h, dose 10-20 mg/kg, time 28 day
[11] = Toxicity against male Sprague-Dawley rat assessed as perianal contamination at 40 mg/kg, po administered once daily via gavage for 28 days; assay type: organism-based; conditions: in vivo, 672 h, time 28 day
[12] = Toxicity against female Sprague-Dawley rat assessed as effect on glucose level in blood at 7.5 to 30 mg/kg, po administered once daily via gavage for 28 days and measured on day 29; assay type: organism-based; conditions: in vivo, 696 h, dose 7.5-30 mg/kg, time 29 day
[13] = AUC(0 to t) in female Sprague-Dawley rat at 7.5 mg/kg, po administered once daily via gavage for 28 days; assay type: ADME, organism-based; conditions: in vivo, 672 h, time 28 day

Sequence of CDK1/Cyclin E (Homo sapiens) (P06493 whole entry, looked up): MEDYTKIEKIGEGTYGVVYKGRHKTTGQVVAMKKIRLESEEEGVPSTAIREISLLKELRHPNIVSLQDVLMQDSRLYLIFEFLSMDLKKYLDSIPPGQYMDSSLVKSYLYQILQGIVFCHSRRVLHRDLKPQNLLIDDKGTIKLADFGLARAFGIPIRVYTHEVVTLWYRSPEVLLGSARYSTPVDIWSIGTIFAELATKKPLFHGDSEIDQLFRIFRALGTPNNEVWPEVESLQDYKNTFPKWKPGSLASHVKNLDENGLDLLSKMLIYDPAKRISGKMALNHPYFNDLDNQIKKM
Sequence of CDK1/Cyclin E (Homo sapiens) (P24864 whole entry, looked up): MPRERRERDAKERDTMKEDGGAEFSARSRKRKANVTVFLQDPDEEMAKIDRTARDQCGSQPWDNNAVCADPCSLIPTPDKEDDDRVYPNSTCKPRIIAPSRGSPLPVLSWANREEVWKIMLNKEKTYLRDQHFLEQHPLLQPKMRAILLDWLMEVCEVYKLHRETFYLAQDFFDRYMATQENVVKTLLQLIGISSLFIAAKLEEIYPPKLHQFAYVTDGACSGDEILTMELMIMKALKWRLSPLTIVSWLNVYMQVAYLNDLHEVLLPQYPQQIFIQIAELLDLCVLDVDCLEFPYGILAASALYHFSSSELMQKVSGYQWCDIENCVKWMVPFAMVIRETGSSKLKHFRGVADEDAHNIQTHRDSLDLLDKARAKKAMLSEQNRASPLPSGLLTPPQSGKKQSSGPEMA
Sequence of Cytochrome P450 2C9 (P11712 whole entry): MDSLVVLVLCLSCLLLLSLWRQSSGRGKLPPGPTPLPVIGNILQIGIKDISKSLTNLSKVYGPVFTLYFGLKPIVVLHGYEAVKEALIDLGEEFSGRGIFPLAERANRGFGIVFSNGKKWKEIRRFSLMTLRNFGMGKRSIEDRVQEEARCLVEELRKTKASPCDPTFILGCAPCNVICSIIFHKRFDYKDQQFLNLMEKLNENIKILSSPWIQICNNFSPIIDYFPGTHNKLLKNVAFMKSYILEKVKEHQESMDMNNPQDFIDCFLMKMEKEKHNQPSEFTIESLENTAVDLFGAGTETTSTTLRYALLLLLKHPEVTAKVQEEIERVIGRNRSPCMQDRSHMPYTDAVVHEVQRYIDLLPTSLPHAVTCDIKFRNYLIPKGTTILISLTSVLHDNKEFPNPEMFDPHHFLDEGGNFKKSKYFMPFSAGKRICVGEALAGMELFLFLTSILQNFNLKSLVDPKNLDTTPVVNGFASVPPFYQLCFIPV

IC50 [1]: 0.123 µM | inhibition [2]: Dose-dependent-effect | inhibition [3]: 75% | inhibition [4]: 24% | IC50 [5]: > 50 µM | Cmax [6]: 3300 ng/mL | Cmax [7]: 1980 ng/mL | Cmax [9]: 1900 ng/mL | AUCt [13]: 1760 ng·h/mL
SMILES: C=CC(=O)N1CCc2c(ncnc2N2CC[C@@H](Nc3ncc(Cl)c(OC)n3)C2)C1
inhibition [8]: inactive | Activity [10]: Non-toxic | Activity [11]: Toxic | Activity [12]: Non-toxic
